Laboratory results taken from ChEMBL document CHEMBL4828718, “Synthesis and Antifungal Activity Evaluation of Phloeodictine Analogues” (J Nat Prod, 2021).
Values after ≈ are worked out from the molar mass of the structure shown. Active and inactive are the calls of the source. The rule behind the calls is not given here.

Tests used:
Nakaseomyces glabratus [1] = assay: Fungicidal activity against Candida glabrata ATCC 90030 assessed as fungal growth inhibition incubated for 18 to 24 hrs by alamar blue assay; format: functional; details: Nakaseomyces glabratus, ATCC 90030, time 18-24 hrs; read-out: MFC
Aspergillus fumigatus [2] = assay: Fungicidal activity against Aspergillus fumigatus ATCC 90906 assessed as fungal growth inhibition incubated for 72 hrs by alamar blue assay; format: functional
Candida albicans [3] = assay: Antifungal activity against Candida albicans ATCC 90028 assessed as fungal growth inhibition incubated for 18 to 24 hrs by alamar blue assay; format: functional; details: Candida albicans, ATCC 90028, time 18-24 hrs; read-out: MIC
Candida albicans [4] = assay: Fungicidal activity against Candida albicans ATCC 90028 assessed as fungal growth inhibition incubated for 18 to 24 hrs by alamar blue assay; format: functional
Vero = assay: Cytotoxicity against African green monkey Vero cells assessed as reduction in cell viability incubated for 48 hrs by neutral red dye based assay; design: species or system Chlorocebus sabaeus; details: Chlorocebus sabaeus, Vero, 48 h
Pichia kudriavzevii [5] = assay: Fungicidal activity against Candida krusei ATCC 6258 assessed as fungal growth inhibition incubated for 18 to 24 hrs by alamar blue assay; format: functional; details: Pichia kudriavzevii, ATCC 6258, time 18-24 hrs; read-out: MFC
Cryptococcus neoformans [6] = assay: Antifungal activity against Cryptococcus neoformans ATCC 90113 assessed as fungal growth inhibition incubated for 72 hrs by alamar blue assay; format: functional; details: Cryptococcus neoformans, ATCC 90113, 72 h, read-out: MIC
Pichia kudriavzevii [7] = assay: Antifungal activity against Candida krusei ATCC 6258 assessed as fungal growth inhibition incubated for 18 to 24 hrs by alamar blue assay; format: functional; details: Pichia kudriavzevii, ATCC 6258, time 18-24 hrs; read-out: MIC
Nakaseomyces glabratus [8] = assay: Antifungal activity against Candida glabrata ATCC 90030 assessed as fungal growth inhibition incubated for 18 to 24 hrs by alamar blue assay; format: functional; details: Nakaseomyces glabratus, ATCC 90030, time 18-24 hrs; read-out: MIC
Cryptococcus neoformans [9] = assay: Fungicidal activity against Cryptococcus neoformans ATCC 90113 assessed as fungal growth inhibition incubated for 72 hrs by alamar blue assay; format: functional; details: Cryptococcus neoformans, ATCC 90113, 72 h, read-out: MFC
Aspergillus fumigatus [10] = assay: Antifungal activity against Aspergillus fumigatus ATCC 90906 assessed as fungal growth inhibition incubated for 72 hrs by alamar blue assay; format: functional
[11] = Aspergillus fumigatus, ATCC 90906, 72 h, read-out: MFC
[12] = Candida albicans, ATCC 90028, time 18-24 hrs, read-out: MFC
[13] = Aspergillus fumigatus, ATCC 90906, 72 h, read-out: MIC

| MIC (Candida albicans [3]) [µM] | MIC (Cryptococcus neoformans [6]) [µM] | MIC (Pichia kudriavzevii [7]) [µM] | MIC (Nakaseomyces glabratus [8]) [µM] | MIC (Aspergillus fumigatus [10]) | MIC (Aspergillus fumigatus [10]; [13]) [µM] | SMILES | MFC (Nakaseomyces glabratus [1]) [µM] | MFC (Aspergillus fumigatus [2]) | MFC (Candida albicans [4]; time 18-24 hrs) | IC50 (Vero) [µM] | MFC (Pichia kudriavzevii [5]) [µM] | MFC (Cryptococcus neoformans [9]) [µM] | MFC (Aspergillus fumigatus [2]; [11]) [µM] | MFC (Candida albicans [4]; [12]) [µM] |
| --- | --- | --- | --- | --- | --- | --- | --- | --- | --- | --- | --- | --- | --- | --- |
| 30 | 1.8 | 3.7 | 2.5 | inactive | – | CCCCCCCCCCCCCCC1(O)C(C)=C(C)C2=[N+](Cc3cc(C(F)(F)F)cc(C(F)(F)F)c3)CCCN21 (configuration not stated) | 2.5 | inactive | inactive | > 37 | 3.7 | 2.5 | – | – |
| 3.5 | 1 | 2.5 | 3.5 | – | 5.2 | C=CC[N+]1=C2C(C)=C(C)C(O)(CCCCCCCCCCCCCC)N2CCC1 (configuration not stated) | 5.2 | – | – | 32 | 2.5 | 4.1 | 17 | 4.3 |
| 3.8 | 1.4 | 3 | 2.7 | – | 4.5 | CCCCCCCCCCCCCCC1(O)C(C)=C(C)C2=[N+](C/C=C/c3ccccc3)CCCN21 (configuration not stated) | 4.1 | – | – | 38 | 3.8 | 4.1 | 5.9 | 3.8 |
| 0.77 (≈ 0.712 µg/mL) | 0.65 (≈ 0.601 µg/mL) | 1.3 (≈ 1.2 µg/mL) | 0.65 (≈ 0.601 µg/mL) | – | 2.3 (≈ 2.13 µg/mL) | C[C@@H]1[C@H](O)[C@@H](C)/C=C/C=C/C=C/C=C/C=C/C=C/C=C/[C@H](O[C@@H]2O[C@H](C)[C@@H](O)[C@H](N)[C@@H]2O)C[C@@H]2O[C@](O)(C[C@@H](O)C[C@@H](O)[C@H](O)CC[C@@H](O)C[C@@H](O)CC(=O)O[C@H]1C)C[C@H](O)[C@H]2C(=O)O [AMPHOTERICIN B] | 0.65 (≈ 0.601 µg/mL) | – | – | 6.8 | 1.3 (≈ 1.2 µg/mL) | 0.65 (≈ 0.601 µg/mL) | 4 (≈ 3.7 µg/mL) | 0.97 (≈ 0.896 µg/mL) |
| 5.4 | 1.3 | 2.8 | 3.4 | – | 6.8 | CCCCCCCCCCCCCCC1(O)C(C)=C(C)C2=[N+](Cc3cnnn3Cc3ccccc3)CCCN21 (configuration not stated) | 4.7 | – | – | > 40 | 2.8 | 2 | 6.8 | 6.8 |
| 4.2 | 1.3 | 2.8 | 2 | – | 4.2 | CCCCCCCCCCCCCCC1(O)C(C)=C(C)C2=[N+](Cc3cccc(C(F)(F)F)c3)CCCN21 (configuration not stated) | 2 | – | – | 27 | 2.8 | 1.7 | 6.3 | 4.2 |
| 5.2 | 0.21 | 2.1 | 1.7 | – | 4.4 | CCCCCCCCCCCCCCC1(O)C=CC2=[N+](C)CCCN21 (configuration not stated) | 1.7 | – | – | 17 | 2.1 | 0.21 | 4.4 | 5.2 |
| 6.7 | 1.5 | 2.2 | 2.2 | – | 3.1 | CCCCCCCCCCCCCCC1(O)C(C)=C(C)C2=[N+](Cc3ccc(F)cc3)CCCN21 (configuration not stated) | 2.2 | – | – | 33 | 2.2 | 1.5 | 3.1 | 6.7 |
| 3.9 | 1.5 | 2.2 | 2.2 | – | 4.7 | CCCCCCCCCCCCCCC1(O)C(C)=C(C)C2=[N+](Cc3ccccc3)CCCN21 (configuration not stated) | 2.2 | – | – | 25 | 2.2 | 1.5 | 4.7 | 3.9 |
| 5.2 | 1.5 | 2.1 | 5.2 | – | 5.2 | C#CC[N+]1=C2C(C)=C(C)C(O)(CCCCCCCCCCCCCC)N2CCC1 (configuration not stated) | 5.2 | – | – | 35 | 2.1 | 2.3 | 5.2 | 5.2 |
| 3.7 | 1.1 | 1.8 | 3 | – | 3.7 | CCCCCCCCCCCCCCC1(O)C(C)=C(C)C2=[N+](Cc3ccc(OC)cc3)CCCN21 (configuration not stated) | 3 | – | – | 24 | 2.7 | 1.4 | 5.1 | 3.7 |
| 4.5 | 1.1 | 2.1 | 2.1 | – | 4.5 | CCCCCCCCCCCCCCC1(O)C(C)=C(C)C2=[N+](Cc3ccc(C#N)cc3)CCCN21 (configuration not stated) | 2.1 | – | – | 29 | 2.1 | 1.1 | 4.5 | 4.5 |
